# Patent publication US10745395B2, “Compounds for their use as drugs for the treatment and/or the prevention of infection(s) caused by biofilm-forming bacteria” (CENTRE NATIONAL DE LA RECHERCHE SCIENTIFIQUE, priority 2014, dated 2020)
# Legend:
# Format in all cases: cell-based, Pseudomonas aeruginosa
# [1] = system: P. aeruginosa strain PAR 20; experiment: Antibiotic susceptibility test, disk diffusion (EUCAST); set-up: key: R means resistant to the antibiotic; S means sensitive to the antibiotic; details: disk load given per antibiotic
# Method: (§1) All tests were performed on Pseudomonas aeruginosa strains coded: PAR 5, PAR 20, PAR 50, isolated from suppurated wounds of three male patients with chronic diabetic foot infections.
# (§2) Drug resistance of the P. aeruginosa strains were tested using the disk diffusion method. Interpretation of the drug resistance of the Pseudomonas aeruginosa strains was done in accordance with the EUCAST standards (see the reference below for more information): http://www.eucast.org/fileadmin/src/media/PDFs/EUCAST_files/Breakpoint tables/Breakpoint_table_v_3.1.pdf.
# (§3) To determine the drug resistance of the strains, the following antibiotics were used: amikacin, ciprofloxacin, gentamicin, piperacillin, tobramycin, ceftazidime (Oxoid, Basingstoke, UK). R means resistant to the antibiotic and S means sensitive to the antibiotic.
# [2] = system: P. aeruginosa strain PAR 50; experiment: as above; set-up: key: R means resistant to the antibiotic; S means sensitive to the antibiotic; details: disk load given per antibiotic
# Method: as §1, §2, §3
# [3] = system: P. aeruginosa strain PAR 5; experiment: as above; set-up: key: R means resistant to the antibiotic; S means sensitive to the antibiotic; details: disk load given per antibiotic
# Method: as §1, §2, §3
# [4] = system: P. aeruginosa strain PAR 20 biofilm; experiment: Early biofilm model, Congo red staining; details: for absorbance (Congo red, biofilm formation): early biofilm, 0.9 mM, 492 nm
# How it was run: (§4)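 Biofilm set up from 1×10^8 CFU/ml P. aeruginosa in TSB, centrifuged 10 min at 2000 rpm; iminosugars at 0.9 mM added at seeding, incubated up to 48 h at 37° C. Biofilm stained with 0.1% Congo red for 30 min and read at 492 nm at 0, 0.5, 8, 24 and 48 h, with viable counts in parallel; TSB-only cultures served as control.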
# [5] = system: P. aeruginosa strain PAR 5 biofilm; experiment: Early biofilm model, Congo red staining; details: for absorbance (Congo red, biofilm formation): 0.9 mM, 492 nm
# How it was run: as §4
# [6] = system: P. aeruginosa strain PAR 50 biofilm; experiment: Early biofilm model, Congo red staining; details: for absorbance (Congo red, biofilm formation): early biofilm, 0.9 mM, 492 nm
# How it was run: as §4
# [7] = system: P. aeruginosa strain PAR 20 biofilm; experiment: Mature biofilm model, Congo red staining; details: for absorbance (Congo red, biofilm development): mature biofilm, compound added 48 h after induction of biofilm
# How it was run: (§5)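 Compounds added 48 h after bacterial adherence in 96-well plates; biofilm checked at 48, 48.5, 56, 72 and 96 h. Biomass stained with 0.1% Congo red for 30 min at room temperature, washed, absorbance read at 492 nm. Triplicate means ±SD.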
# [8] = system: P. aeruginosa strain PAR 5 biofilm; experiment: Mature biofilm model, Congo red staining; details: for absorbance (Congo red, biofilm development): mature biofilm, compound added 48 h after induction of biofilm
# How it was run: as §5
# [9] = system: P. aeruginosa strain PAR 50 biofilm; experiment: Mature biofilm model, Congo red staining; details: for absorbance (Congo red, biofilm development): mature biofilm, compound added 48 h after induction of biofilm
# How it was run: as §5
# [10] = system: P. aeruginosa strain PAR 20; experiment: Number of viable bacteria in early and mature biofilm (viable count)
# How it was run: (§6)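 Biofilm contents of P. aeruginosa PAR 5, PAR 20 or PAR 50 wells sampled at 0-96 h, iminosugars added at 48 h. Decimal dilutions in TSB were plated on McConkey agar, incubated 24 h at 37° C., and colonies counted as log CFU/ml; detection limit 100 CFU/ml.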
# [11] = system: P. aeruginosa strain PAR 50; experiment: as above
# How it was run: as §6
# [12] = system: P. aeruginosa strain PAR 5; experiment: as above
# How it was run: as §6
# [13] = system: P. aeruginosa strain PAR 5 biofilm; experiment: Reduction of biofilm growth (percent vs culture control)
# How it was run: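 Iminosugars at 0.9 mM final were added to P. aeruginosa in TSB either at seeding (early biofilm, 48 h at 37° C) or 48 h after bacterial adherence (mature biofilm). Biofilm stained with Congo Red and read spectrophotometrically; percent decrease in thickness is the mean of 3 measurements relative to untreated control (100%).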
# [14] = system: P. aeruginosa strain PAR 20 biofilm; experiment: as above
# [15] = system: P. aeruginosa strain PAR 50 biofilm; experiment: as above
# How it was run: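 Biofilms grown in TSB at 37 °C; compounds at 0.9 mM final added at inoculation (early biofilm, 48 h) or 48 h after bacterial adherence (mature biofilm). Congo Red-stained biofilm read by spectrophotometry, mean of 3 measurements; reduction expressed as percent versus untreated control set to 100%.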
# [16] = in comparison with culture control
compound,measurement,setting,value
NCC[C@H](O)C(=O)N[C@@H]1C[C@H](N)[C@@H](O[C@H]2O[C@H](CN)[C@@H](O)[C@H](O)[C@H]2O)[C@H](O)[C@H]1O[C@H]1O[C@H](CO)[C@@H](O)[C@H](N)[C@H]1O [Amikacin],Antibiotic susceptibility (according to EUCAST),[1],S
same,Antibiotic susceptibility (according to EUCAST),[2],R
same,Antibiotic susceptibility (according to EUCAST),[3],S
CC(C)(O/N=C(\C(=O)N[C@@H]1C(=O)N2C(C(=O)[O-])=C(C[n+]3ccccc3)CS[C@H]12)c1csc(N)n1)C(=O)O [Ceftazidime],Antibiotic susceptibility (according to EUCAST),[1],S
same,Antibiotic susceptibility (according to EUCAST),[2],S
same,Antibiotic susceptibility (according to EUCAST),[3],R
O=C(O)c1cn(C2CC2)c2cc(N3CCNCC3)c(F)cc2c1=O [Ciprofloxacin],Antibiotic susceptibility (according to EUCAST),[1],S
same,Antibiotic susceptibility (according to EUCAST),[2],S
same,Antibiotic susceptibility (according to EUCAST),[3],S
"CCC[C@H]1N[C@@H](CO)[C@H](O)[C@H]1O [Compound 4, β-1-C-propyl-1,4-dideoxy-1,4-imino-L-arabinitol]","absorbance (Congo red, biofilm formation)",[4]; 8 hours,about 0.6 a.u.
same,"absorbance (Congo red, biofilm formation)",[4]; 24 hours,about 1.0 a.u.
same,"absorbance (Congo red, biofilm formation)",[4]; 48 hours,about 0.75 a.u.
same,effect on formation of an early biofilm,[4]; [16],inhibit the formation of an early biofilm
same,"biofilm formation at 8 hours, 24 hours and 48 hours",[5]; early biofilm,no biofilm formation
same,"absorbance (Congo red, biofilm formation)","[5]; early biofilm, 8 hours",about 0.25 a.u.
same,"absorbance (Congo red, biofilm formation)","[5]; early biofilm, 24 hours",about 0.25 a.u.
same,"absorbance (Congo red, biofilm formation)","[5]; early biofilm, 48 hours",about 0.25 a.u.
same,effect on formation of an early biofilm,[5]; [16],inhibit the formation of an early biofilm
same,"absorbance (Congo red, biofilm formation)",[6]; 8 hours,about 0.8 a.u.
same,"absorbance (Congo red, biofilm formation)",[6]; 24 hours,about 1.4 a.u.
same,"absorbance (Congo red, biofilm formation)",[6]; 48 hours,about 0.9 a.u.
same,effect on formation of an early biofilm,[6]; [16],inhibit the formation of an early biofilm
same,influence on mature biofilm formation,[7],weak influence
same,"absorbance (Congo red, biofilm development)",[7]; 48 hours,about 0.5 a.u.
same,"absorbance (Congo red, biofilm development)",[7]; 56 hours,about 0.75 a.u.
same,"absorbance (Congo red, biofilm development)",[7]; 72 hours,about 1.25 a.u.
same,"absorbance (Congo red, biofilm development)",[7]; 96 hours,about 1.75 a.u.
same,influence on mature biofilm formation,[8],weak influence
same,"absorbance (Congo red, biofilm development)",[8]; 48 hours,about 0.5 a.u.
same,"absorbance (Congo red, biofilm development)",[8]; 56 hours,about 1.25 a.u.
same,"absorbance (Congo red, biofilm development)",[8]; 72 hours,about 1.25 a.u.
same,"absorbance (Congo red, biofilm development)",[8]; 96 hours,about 0.5 a.u.
same,influence on mature biofilm formation,[9],weak influence
same,"absorbance (Congo red, biofilm development)",[9]; 48 hours,about 1.4 a.u.
same,"absorbance (Congo red, biofilm development)",[9]; 56 hours,about 1.4 a.u.
same,"absorbance (Congo red, biofilm development)",[9]; 72 hours,about 1.5 a.u.
same,"absorbance (Congo red, biofilm development)",[9]; 96 hours,about 1.75 a.u.
same,number of viable P. aeruginosa,"[10]; early biofilm, 0 h",5 × 10^6 CFU/ml
same,number of viable P. aeruginosa,"[10]; early biofilm, 8 h",2 × 10^7 CFU/ml
same,number of viable P. aeruginosa,"[10]; early biofilm, 24 h",4 × 10^8 CFU/ml
same,number of viable P. aeruginosa,"[10]; early biofilm, 48 h",3 × 10^9 CFU/ml
same,number of viable P. aeruginosa,"[10]; mature biofilm, 56 h",9 × 10^8 CFU/ml
same,number of viable P. aeruginosa,"[10]; mature biofilm, 72 h",8 × 10^7 CFU/ml
same,number of viable P. aeruginosa,"[10]; mature biofilm, 96 h",4 × 10^8 CFU/ml
same,number of viable P. aeruginosa,"[11]; early biofilm, 0 h",1 × 10^7 CFU/ml
same,number of viable P. aeruginosa,"[11]; early biofilm, 8 h",2 × 10^8 CFU/ml
same,number of viable P. aeruginosa,"[11]; early biofilm, 24 h",7 × 10^8 CFU/ml
same,number of viable P. aeruginosa,"[11]; early biofilm, 48 h",1 × 10^8 CFU/ml
same,number of viable P. aeruginosa,"[11]; mature biofilm, 56 h",3 × 10^9 CFU/ml
same,number of viable P. aeruginosa,"[11]; mature biofilm, 72 h",9 × 10^9 CFU/ml
same,number of viable P. aeruginosa,"[11]; mature biofilm, 96 h",1 × 10^9 CFU/ml
same,number of viable P. aeruginosa,"[12]; early biofilm, 0 h",9 × 10^6 CFU/ml
same,number of viable P. aeruginosa,"[12]; early biofilm, 8 h",3 × 10^6 CFU/ml
same,number of viable P. aeruginosa,"[12]; early biofilm, 24 h",9 × 10^7 CFU/ml
same,number of viable P. aeruginosa,"[12]; early biofilm, 48 h",3 × 10^7 CFU/ml
same,number of viable P. aeruginosa,"[12]; mature biofilm, 56 h",4 × 10^8 CFU/ml
same,number of viable P. aeruginosa,"[12]; mature biofilm, 72 h",3 × 10^8 CFU/ml
same,number of viable P. aeruginosa,"[12]; mature biofilm, 96 h",2 × 10^9 CFU/ml
same,reduction of biofilm growth,[13]; 8 hours of incubation,about 90%
same,reduction of biofilm growth,[13]; 24 hours of incubation,about 90%
same,reduction of biofilm growth,[13]; 48 hours of incubation,about 25%
same,reduction of biofilm growth,[13]; 72 hours of incubation,about 10%
same,effect on biofilm growth,[13]; notably an early biofilm,can reduce the biofilm growth
same,reduction of biofilm growth,[14]; 8 hours of incubation,about 60%
same,reduction of biofilm growth,[14]; 24 hours of incubation,about 35%
same,reduction of biofilm growth,[14]; 48 hours of incubation,about 45%
same,reduction of biofilm growth,[14]; 72 hours of incubation,about 0%
same,effect on biofilm growth,[14]; notably an early biofilm,can reduce the biofilm growth
same,reduction of biofilm growth,[15]; 8 hours of incubation,about 60%
same,reduction of biofilm growth,[15]; 24 hours of incubation,about 35%
same,reduction of biofilm growth,[15]; 48 hours of incubation,about 45%
same,reduction of biofilm growth,[15]; 72 hours of incubation,about 30%
same,effect on biofilm growth,[15]; notably an early biofilm,can reduce the biofilm growth
CCN1CCN(C(=O)N[C@@H](C(=O)N[C@@H]2C(=O)N3[C@@H]2SC(C)(C)[C@@H]3C(=O)O)c2ccccc2)C(=O)C1=O [Piperacillin],Antibiotic susceptibility (according to EUCAST),[1],S
same,Antibiotic susceptibility (according to EUCAST),[2],R
same,Antibiotic susceptibility (according to EUCAST),[3],S
NC[C@H]1O[C@H](O[C@H]2[C@H](O)[C@@H](O[C@H]3O[C@H](CO)[C@@H](O)[C@H](N)[C@H]3O)[C@H](N)C[C@@H]2N)[C@H](N)C[C@@H]1O [Tobramycin],Antibiotic susceptibility (according to EUCAST),[1],S
same,Antibiotic susceptibility (according to EUCAST),[2],R
same,Antibiotic susceptibility (according to EUCAST),[3],S
Gentamicin,Antibiotic susceptibility (according to EUCAST),[1],S
same,Antibiotic susceptibility (according to EUCAST),[2],R
same,Antibiotic susceptibility (according to EUCAST),[3],S
